Measurements taken from ChEMBL document CHEMBL2163333, “Novel imidazol-1-ylmethyl substituted 1,2,5,6-tetrahydropyrrolo[3,2,1-ij]quinolin-4-ones as potent and selective CYP11B1 inhibitors for the treatment of Cushing's syndrome” (J Med Chem, 2012).

Tests used:
Homo sapiens [1] = species: Homo sapiens; assay: Selectivity ratio of IC50 for human CYP11B2 to IC50 for human CYP11B1
[2] = target: T1, Cytochrome P450 11B2, mitochondrial (Homo sapiens, UniProt P19099); assay: Inhibition of human CYP11B2 expressed in hamster V79 MZh cells using deoxycorticosterone substrate; format: cell-based
T1 sequence (P19099 whole entry): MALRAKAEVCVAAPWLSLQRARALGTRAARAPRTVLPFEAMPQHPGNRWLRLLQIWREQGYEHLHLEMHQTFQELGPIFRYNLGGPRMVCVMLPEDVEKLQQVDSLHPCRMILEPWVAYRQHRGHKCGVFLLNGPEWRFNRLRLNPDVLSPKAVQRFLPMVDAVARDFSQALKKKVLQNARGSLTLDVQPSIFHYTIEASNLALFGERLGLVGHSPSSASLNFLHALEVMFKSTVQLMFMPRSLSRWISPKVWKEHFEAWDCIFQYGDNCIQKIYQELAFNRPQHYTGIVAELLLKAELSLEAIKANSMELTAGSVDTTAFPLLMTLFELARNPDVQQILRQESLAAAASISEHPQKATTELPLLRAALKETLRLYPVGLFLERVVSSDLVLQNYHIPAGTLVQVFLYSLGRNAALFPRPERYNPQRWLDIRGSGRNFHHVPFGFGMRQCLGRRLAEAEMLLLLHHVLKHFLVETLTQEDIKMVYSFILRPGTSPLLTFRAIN

[3] = target: T2, Cytochrome P450 11B1, mitochondrial (Homo sapiens, UniProt P15538); assay: Inhibition of human CYP11B1 expressed in hamster V79 MZh cells using deoxycorticosterone substrate; format: cell-based
T2 sequence (P15538 whole entry): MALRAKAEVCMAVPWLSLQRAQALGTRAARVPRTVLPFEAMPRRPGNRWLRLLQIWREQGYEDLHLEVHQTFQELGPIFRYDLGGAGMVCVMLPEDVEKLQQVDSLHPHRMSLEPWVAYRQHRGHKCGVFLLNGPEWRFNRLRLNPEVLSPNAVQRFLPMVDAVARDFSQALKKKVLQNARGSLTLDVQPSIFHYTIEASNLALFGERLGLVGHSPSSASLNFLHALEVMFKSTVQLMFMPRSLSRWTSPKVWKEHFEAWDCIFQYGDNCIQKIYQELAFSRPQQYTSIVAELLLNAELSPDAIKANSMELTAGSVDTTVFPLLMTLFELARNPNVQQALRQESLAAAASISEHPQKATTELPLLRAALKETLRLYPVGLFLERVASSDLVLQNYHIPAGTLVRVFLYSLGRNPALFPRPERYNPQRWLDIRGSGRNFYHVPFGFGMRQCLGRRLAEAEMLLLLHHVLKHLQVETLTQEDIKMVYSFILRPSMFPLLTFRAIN

Homo sapiens [4] = species: Homo sapiens; assay: Selectivity ratio of IC50 for human CYP17 to IC50 for human CYP11B1
Homo sapiens [5] = species: Homo sapiens; assay: Selectivity ratio of IC50 for human placental CYP19 to IC50 for human CYP11B1
Aromatase = target: T3, Aromatase (Homo sapiens, UniProt P11511); assay: Inhibition of human placental CYP19 using androstenedione substrate
T3 sequence (P11511 whole entry): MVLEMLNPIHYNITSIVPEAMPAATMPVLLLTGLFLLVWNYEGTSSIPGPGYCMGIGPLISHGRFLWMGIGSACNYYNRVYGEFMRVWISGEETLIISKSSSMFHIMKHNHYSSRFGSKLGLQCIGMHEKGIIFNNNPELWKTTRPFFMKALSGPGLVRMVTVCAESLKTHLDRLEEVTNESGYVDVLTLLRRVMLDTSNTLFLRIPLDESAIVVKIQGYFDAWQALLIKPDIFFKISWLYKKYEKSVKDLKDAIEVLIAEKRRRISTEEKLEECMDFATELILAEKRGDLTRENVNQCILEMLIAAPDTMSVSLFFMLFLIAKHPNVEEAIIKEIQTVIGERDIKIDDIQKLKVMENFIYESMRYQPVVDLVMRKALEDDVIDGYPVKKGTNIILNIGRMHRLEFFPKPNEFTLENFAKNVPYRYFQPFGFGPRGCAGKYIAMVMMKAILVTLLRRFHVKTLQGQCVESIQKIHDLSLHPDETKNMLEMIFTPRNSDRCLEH

[6] = target: T4, Steroid 17-alpha-hydroxylase/17,20 lyase (Homo sapiens, UniProt P05093); assay: Inhibition of human CYP17 expressed in Escherichia coli using progesterone substrate
T4 sequence (P05093 whole entry): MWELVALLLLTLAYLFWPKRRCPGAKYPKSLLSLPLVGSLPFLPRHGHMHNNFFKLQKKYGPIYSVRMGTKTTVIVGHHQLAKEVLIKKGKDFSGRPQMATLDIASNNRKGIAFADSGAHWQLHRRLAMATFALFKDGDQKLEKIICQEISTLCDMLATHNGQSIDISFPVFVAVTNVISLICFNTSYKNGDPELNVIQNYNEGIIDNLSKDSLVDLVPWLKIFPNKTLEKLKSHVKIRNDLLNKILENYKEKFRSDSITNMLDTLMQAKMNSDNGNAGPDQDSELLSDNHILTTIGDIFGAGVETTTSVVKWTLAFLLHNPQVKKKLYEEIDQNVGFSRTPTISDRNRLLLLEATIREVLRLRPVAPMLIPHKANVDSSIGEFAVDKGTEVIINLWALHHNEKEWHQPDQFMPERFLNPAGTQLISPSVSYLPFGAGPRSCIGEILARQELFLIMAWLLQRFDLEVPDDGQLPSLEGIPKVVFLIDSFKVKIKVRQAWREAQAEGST

[7] = target: T5, Cytochrome P450 11B1, mitochondrial (Rattus norvegicus, UniProt P15393); assay: Inhibition of rat CYP11B1 at 2 uM
T5 sequence (P15393 whole entry): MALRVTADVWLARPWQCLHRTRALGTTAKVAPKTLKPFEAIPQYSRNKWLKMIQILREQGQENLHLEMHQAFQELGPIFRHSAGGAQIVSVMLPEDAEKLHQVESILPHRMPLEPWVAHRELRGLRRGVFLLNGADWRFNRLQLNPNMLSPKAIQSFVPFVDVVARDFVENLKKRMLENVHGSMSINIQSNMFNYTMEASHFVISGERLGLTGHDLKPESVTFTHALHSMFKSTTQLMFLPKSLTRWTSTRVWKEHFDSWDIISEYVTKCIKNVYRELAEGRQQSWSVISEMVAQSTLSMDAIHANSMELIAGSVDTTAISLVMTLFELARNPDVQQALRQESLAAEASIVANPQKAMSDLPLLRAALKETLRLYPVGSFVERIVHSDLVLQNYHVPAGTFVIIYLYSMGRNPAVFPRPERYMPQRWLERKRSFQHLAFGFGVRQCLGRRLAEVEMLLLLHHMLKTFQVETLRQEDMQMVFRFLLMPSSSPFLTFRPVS

| Ratio IC50 (Homo sapiens [1]) | IC50 [2] [nM] | IC50 [3] [nM] | Ratio IC50 (Homo sapiens [4]) | Ratio IC50 (Homo sapiens [5]) | IC50 (Aromatase) [nM] | IC50 [6] [nM] | inhibition at 2 µM [7] [%] | SMILES |
| --- | --- | --- | --- | --- | --- | --- | --- | --- |
| 1.1 | 29 | 27 |  |  |  |  |  | O=C1CCc2cc(C(c3ccc(F)cc3)n3ccnc3)cc3c2N1CC3 (configuration not stated) |
| 2.6 | 104 | 40 | > 125 | 1.1 | 43 | > 5000 |  | COc1ccc(C(c2cc3c4c(c2)CCN4C(=O)CC3)n2ccnc2)cc1 (configuration not stated) |
| 5.3 | 100 | 19 | > 260 | 0.9 | 17 | > 5000 |  | C=C(c1cc2c3c(c1)CCN3C(=O)CC2)n1ccnc1 |
|  |  | 1.5 |  |  |  |  |  | O=C1CCc2cc(C(C3CC3)n3ccnc3)cc3c2N1CC3 (single isomer, unassigned; (-)) |
| 0.8 | 88 | 110 |  |  |  |  |  | COc1cccc(C(c2cc3c4c(c2)CCN4C(=O)CC3)n2ccnc2)c1 (configuration not stated) |
| 1.9 | 851 | 438 |  |  |  |  |  | CC(c1cc2c3c(c1)CCN3C(=O)CC2)(n1ccnc1)n1ccnc1 |
| 2.7 | 3.8 | 1.4 | 1110 | > 357 | > 500 | 1550 |  | CC(C)C(c1cc2c3c(c1)CCN3C(=O)CC2)n1ccnc1 (configuration not stated) |
|  |  | 10.3 |  |  |  |  |  | O=C1CCc2cc(C(C3CC3)n3ccnc3)cc3c2N1CC3 (stereo in doubt; (+)-4) |
| 4.4 | 308 | 70 |  |  |  |  |  | N#Cc1ccc(C(c2cc3c4c(c2)CCN4C(=O)CC3)n2ccnc2)cc1 (configuration not stated) |
| 0.7 | 33 | 50 |  |  |  |  |  | O=C1CCc2cc(C(c3ccccc3)n3ccnc3)cc3c2N1CC3 (configuration not stated) |
| 1.4 | 18 | 13 |  |  |  |  |  | O=C1CCc2cc(C(c3cccs3)n3ccnc3)cc3c2N1CC3 (configuration not stated) |
| 2.1 | 304 | 144 |  |  |  |  |  | N#Cc1cccc(C(c2cc3c4c(c2)CCN4C(=O)CC3)n2ccnc2)c1 (configuration not stated) |
| 1.2 | 4.2 | 3.4 |  |  |  |  |  | O=C1CCc2cc(C(C3CCC3)n3ccnc3)cc3c2N1CC3 (configuration not stated) |
| 0.5 | 19 | 40 |  |  |  |  |  | O=C1CCc2cc(C(c3ccccc3F)n3ccnc3)cc3c2N1CC3 (configuration not stated) |
|  | 24 | 2.2 |  |  | 228 | 2880 | 91 | O=C1CCc2cc(C(C3CC3)n3ccnc3)cc3c2N1CC3 (racemic) |
| 0.6 | 18 | 29 |  |  |  |  |  | O=C1CCc2cc(C(c3cccc(F)c3)n3ccnc3)cc3c2N1CC3 (configuration not stated) |
| 0.9 | 5.8 | 6.5 |  |  |  |  |  | CCC(c1cc2c3c(c1)CCN3C(=O)CC2)n1ccnc1 (configuration not stated) |
| 0.9 | 15 | 17 |  |  |  |  |  | CC(c1cc2c3c(c1)CCN3C(=O)CC2)n1ccnc1 (configuration not stated) |
| 2.4 | 47 | 20 |  |  |  |  |  | O=C1CCc2cc(C(c3ccco3)n3ccnc3)cc3c2N1CC3 (configuration not stated) |
